The text below walks through data of US12193465B2, “Materials and methods for extending shelf-life of foods” (JP Laboratories, Inc., priority 2021, dated 2025).

A value given as a limit tells only on which side of the number the result lay.

Test [1] can be described thus: General shelf-life extension of foods (spoilage criteria of Example 9).
For another test, the system named is fungus. In words: Fungus growth on treated foods stored in closed containers at room temperature. Conditions: for Spoilage Time - Sample: Fungus. The source says:
(§1) Most of the foods changed color or texture.
Glass jars and bottles were also used. The containers were snap-closed or with a lid.
(§2) These bags were sealed with a heat sealer.
(§3) The assembly was shaken periodically.

Test [2] concerns green tomato, papaya, banana, mango, peppers, tindora. In words: Ripening of fruits and vegetables (delayed or expedited). The settings on record: Example 126, Ripening, Green tomato, 2 hrs P-E, control 14 days. The protocol:
(§4) All studies were conducted at a room temperature of about 25° C. To determine the effectiveness of a shelf-life extender, a control sample which was untreated with any shelf-life extenders, was tested identical to the test samples. […] All studies in those Examples of Tables 1-6 were conducted in closed plastic or glass containers. Containers, such as plastic containers, without or with lids having holes can be used if it is advantageous to let excess moisture escape or to prevent condensation of moisture released by some produce.
(§5) For controlled exposure and a constant supply of a preservative to foods, sachets containing one or more drops of preservatives were used. Sachets were made by placing an appropriate amount of a preservative in a plastic bag containing a piece of paper and heat sealing the bag. The sachet bag materials used were Tyvek® for solid preservative, polyethylene, polyester and high barrier multilayer films were used for liquid preservatives. These bags were sealed with a heat sealer. The sachet was typically applied on one side of the container containing food.
(§6) A piece of paper napkin was taped inside a 100 microns thick polyethylene or polyester Ziploc bag. The size of the bag varied from ˜20 cm×30 cm to ˜60 cm×90 cm depended on the sample with sandwich bags up to gallon bags being exemplary. The paper napkin was wetted with 0.1-0.5 ml of a preservative or a mixture of preservatives. A tray of aluminum, stainless steel or glass containing the foods was placed inside the plastic (polyethylene, polyester and multilayer-laminated) bag and almost closed by locking the Ziploc. Air was blown with an air blower from the unclosed end until the bag was fully blown and then quickly closed tightly by locking the remaining Ziploc. If a preservative was a sublimable solid, it was placed in a petri dish and then placed inside the bag in the tray before blowing air. The exposure time was varied from five minutes to a day depending upon the food. […] The assembly was shaken periodically. After the predetermined time, the tray containing produce was removed from the bag, allowed to de-gas for 10-30 minutes in air and the produce was then placed in an appropriately sized container. Glass and stainless steel containers with lids were also often used.
(§7) A solution of one or more preservatives was prepared in a large (e.g., 2-10 liter) glass beaker or a jar. A sack containing the food was prepared by placing the food in a plastic mesh bag. The sack was placed in the solution of the preservative. A smaller glass beaker containing proper amount of water was place over the package to keep the sack soaked in the solution of the preservative during the treatment. The solution was stirred either with a plastic spatula or with a magnet over a magnetic stirrer. After treatment, the mesh sack was removed, the produce was washed in a tray with running water, strained and air dried at 30° C. in an air blowing oven for about 5-10 minutes, while shaking the tray or turning the food periodically followed by placing the sample in an appropriate container.
The untreated (control sample) and treated food were placed in proper sized plastic containers and the containers were tightly closed.
The following major criteria were used for determining spoilage of foods: growth of fungus, color change, unpleasant odor, wilting, firmness or shriveling, change of state (liquid to solid or vice versa), and sprouting or germination Example 10: Sources of food.

Test [3] relates to grains, legumes, potatoes, garlic. Briefly: Germination / sprouting of grains, legumes and tubers. The settings on record: Example 129, Sprouting, Small yellow potatoes, Sachet, 100% relative humidity, control 8 days.
Excerpt: as §2, §3

The test system of the next test is cut lilies. Briefly: Keeping cut flowers longer (browning of petals). Conditions: Example 118, 0.01% solution, control <12 days. The source says: Other preservative tested with flowers include: cyclohexanone, 2-cyclohexen-1-one, 1-methyl-1-cyclopentene, 3-methoxyphenylboronic acid, 3-chlorophenylboronic acid, benzyl ether, choline chloride and hydrogen sulfide. Flowers can be exposed to very low concentration, e.g., in ppm, of vapor of the shelf-life extenders to keep them fresher longer.

Test [4] is described as follows: Color change / browning / yellowing of foods (keeping produce green longer). The settings on record: Example 119, Color change, Parsley, 0.25 hr P-E, control 7 days. The protocol: as §4
Food exposed to preservatives or by a sachet was placed in typically polystyrene or acrylic containers depending upon the size and number of food items. Glass jars and bottles were also used. The containers were snap-closed or with a lid. The containers were purchased mainly from Amazon or Webstaurant.com store. When needed, plastic containers with holes or without lids were used.
as §5, §6, §7
The food was placed in mesh trays and sprayed with an aqueous solution (1-10%) of a preservative while shaking the tray or turning the food. The solution was allowed to drain from the tray and the food was air dried in an air blowing oven at 30° C. for about 5-10 minutes, while shaking the tray or turning food periodically followed by placing the sample in an appropriate container.

The test system of the next test is avocado. Briefly: Softening / rotten inside (spoiled flesh) of avocado. Conditions: Rotten inside, 1 hr P-E.
Excerpt: as §1, §3

Test [5] deals with parval, methi, coriander, radish, guar. In words: Shriveling / wilting / dehydration / becoming wet of produce. The settings on record: Example 130, Wilting, Coriander, 1 hr P-E, control 11 days.
Excerpt: as §1, §3

Turning to `CC(=O)CC(C)=O` [AA, Acetylacetone], the “Shelf-life of flowery vegetables” value in test [1] (flowery vegetables) is reported as “extended shelf-life”. In addition, the “Effectiveness for controlling one or more spoilage criteria” value in test [1] (variety of foods) was “effective to a greater or lesser extent”. For the same compound, the “Spoilage Time - Sample” value with fungus (Example 120, Farmer's cheese, 0.5 hr P-E, control 5 days) was 34 days; in the test on fungus (Example 120, Farmer's cheese, 0.5 hr P-E, control 5 days, listed as Acetylacetone) it was “delayed the growth of fungus”; with fungus (Example 122, Raw milk Ricotta cheese, Sachet, control 3 days) it was 35 days; in the test with fungus (Example 123, Raspberry, 1 hr P-E, control 5 days) it was 31 days; with fungus (Example 124, Yellow pearl onions, Sachet, control 24 days) it was 48 days; in test [2], 18 days. The “Spoilage Time - Sample” value is listed as “significantly delayed” in test [2] (listed as acetylacetone); 48+ days in test [3]; more than 48 days in test [3] (listed as acetylacetone); 12+ days with cut lilies; more than 12 days in the test on cut lilies (listed as acetylacetone); 21+ days in test [4]. For the same compound, the “Spoilage Time - Sample” value in test [4] (listed as acetylacetone) is given as more than 21 days; in the test on avocado (Example 127, Avocado, control 7 days), 9 days; in the test with avocado (Example 127, Avocado, control 7 days, listed as acetylacetone) it was more than 9 days; in the test with avocado (Example 128, Haas Avocado, control 11 days), 11 days; in test [5] it was 21+ days; in test [5] (listed as acetylacetone), more than 21 days. In addition, the Effectiveness on ginger result in the test with fungus (ginger, pre-exposure and sachet method) was “found effective”. Also, the Fungus growth entry in the test on fungus (strawberries, raspberries, blackberries and lychee) is given as “either prevented or significantly delayed”.
